The supplement of paper PMC6965134

assay: TIMS collisional cross section (CCS, N2) of the lipid ion; higher = larger ion cross section; details: sample type: HeLa; ionization mode: positive; one isomer drawn

Row | SMILES | TIMS collisional cross section
1 | CC/C=C\C/C=C\C/C=C\C/C=C\CCCCC(=O)O[C@H](COC(=O)CCCCCCC/C=C\CCCCCCCC)COP(=O)([O-])OCC[N+](C)(C)C [PC 18:1@_18:4] (ion (formula + adduct): [C44H78NO8P+H] 1+) | 289.4 Å²
2 | CCCCC/C=C\C/C=C\C/C=C\C/C=C\CCCC(=O)O[C@H](COC(=O)CCCCCCC/C=C\CCCCCCCC)COP(=O)([O-])OCC[N+](C)(C)C [PC 18:1@_20:4] (ion (formula + adduct): [C46H82NO8P+H] 1+) | 292.7 Å²
3 | CC/C=C\C/C=C\C/C=C\C/C=C\C/C=C\CCCC(=O)O[C@H](COC(=O)CCCCCCCCC/C=C\CCCCCC)COP(=O)([O-])OCC[N+](C)(C)C [PC 18:1@_20:5] (ion (formula + adduct): [C46H80NO8P+H] 1+) | 290.2 Å²
4 | CCCCCCC/C=C\CCCCCCCCC(=O)OC[C@H](COP(=O)([O-])OCC[N+](C)(C)C)OC(=O)CCCCCCCC/C=C\CCCCCCC [PC 18:1_18:1] (ion (formula + adduct): [C44H84NO8P+H] 1+) | 292.9 Å²
5 | CCCCCCCC/C=C\C/C=C\CCCCC(=O)O[C@H](COC(=O)CCCCCCC/C=C\CCCCCCCC)COP(=O)([O-])OCC[N+](C)(C)C [PC 18:1_18:2@] (ion (formula + adduct): [C44H82NO8P+H] 1+) | 290.1 Å²
6 | CCCCC/C=C\C/C=C\CCCCCCCCCC(=O)O[C@H](COC(=O)CCCCCCC/C=C\CCCCCCCC)COP(=O)([O-])OCC[N+](C)(C)C [PC 18:1_20:2] (ion (formula + adduct): [C46H86NO8P+H] 1+) | 295.9 Å²
7 | CCCCCCCC/C=C\C/C=C\C/C=C\CCCC(=O)O[C@H](COC(=O)CCCCCCC/C=C\CCCCCCCC)COP(=O)([O-])OCC[N+](C)(C)C [PC 18:1_20:3] (ion (formula + adduct): [C46H84NO8P+H] 1+) | 294 Å²
8 | CCCCCCCC/C=C\CCCCCCCC(=O)OC[C@H](COP(=O)([O-])OCC[N+](C)(C)C)OC(=O)CCCCCCCCC/C=C\CCCCCCCCCC [PC 18:1_22:1@] (ion (formula + adduct): [C48H92NO8P+H] 1+) | 304.8 Å²
9 | CCCCC/C=C\C/C=C\CCCCCCCCCCCC(=O)O[C@H](COC(=O)CCCCCCC/C=C\CCCCCCCC)COP(=O)([O-])OCC[N+](C)(C)C [PC 18:1_22:2@] (ion (formula + adduct): [C48H90NO8P+H] 1+) | 302.4 Å²
10 | CC/C=C\C/C=C\C/C=C\C/C=C\C/C=C\CCCC(=O)O[C@H](COC(=O)CCCCCCC/C=C\C/C=C\CCCCC)COP(=O)([O-])OCC[N+](C)(C)C [PC 18:2@_20:5] (ion (formula + adduct): [C46H78NO8P+H] 1+) | 286.6 Å²
11 | CCCCCCCCCCCCC/C=C/C=C/C(=O)OC[C@H](COP(=O)([O-])OCC[N+](C)(C)C)OC(=O)/C=C/C=C/CCCCCCCCCCCCC [PC 18:2_18:2] (ion (formula + adduct): [C44H80NO8P+H] 1+) | 287.6 Å²

same assay, conditions: sample type: Liver; ionization mode: positive; one isomer drawn

Row | SMILES | TIMS collisional cross section
12 | CC/C=C\C/C=C\C/C=C\C/C=C\C/C=C\CCCC(=O)O[C@H](COC(=O)CCCCCCCCC/C=C\CCCCCC)COP(=O)([O-])OCC[N+](C)(C)C [PC 18:1@_20:5] (ion (formula + adduct): [C46H80NO8P+H] 1+) | 290.9 Å²
13 | CC/C=C\C/C=C\C/C=C\C/C=C\C/C=C\CCCCCC(=O)O[C@H](COC(=O)CCCCCCCCC/C=C\CCCCCC)COP(=O)([O-])OCC[N+](C)(C)C [PC 18:1@_22:5] (ion (formula + adduct): [C48H84NO8P+H] 1+) | 297 Å²
14 | CCCCCCCC/C=C\C/C=C\C/C=C\CCCC(=O)O[C@H](COC(=O)CCCCCCC/C=C\CCCCCCCC)COP(=O)([O-])OCC[N+](C)(C)C [PC 18:1_20:3] (ion (formula + adduct): [C46H84NO8P+H] 1+) | 293.7 Å²
15 | CC/C=C\C/C=C\C/C=C\C/C=C\C/C=C\C/C=C\CCC(=O)O[C@H](COC(=O)CCCCCCCCC/C=C\CCCCCC)COP(=O)([O-])OCC[N+](C)(C)C [PC 18:1_22:6] (ion (formula + adduct): [C48H82NO8P+H] 1+) | 295.6 Å²
16 | CCCCC/C=C\C/C=C\C/C=C\CCCCC(=O)O[C@H](COC(=O)CCCCCCC/C=C\C/C=C\CCCCC)COP(=O)([O-])OCC[N+](C)(C)C [PC 18:2@_18:3] (ion (formula + adduct): [C44H78NO8P+H] 1+) | 284.9 Å²
17 | CCCCC/C=C\C/C=C\C/C=C\C/C=C\CCCC(=O)O[C@H](COC(=O)CCCCCCC/C=C\C/C=C\CCCCC)COP(=O)([O-])OCC[N+](C)(C)C [PC 18:2@_20:4] (ion (formula + adduct): [C46H80NO8P+H] 1+) | 290.9 Å²
18 | CCCCC/C=C\C/C=C\C/C=C\CCCCC(=O)O[C@H](COC(=O)CCCCCCC/C=C\C/C=C\CCCCC)COP(=O)([O-])OCC[N+](C)(C)C [PC 18:2_18:3@] (ion (formula + adduct): [C44H78NO8P+H] 1+) | 289.9 Å²
19 | CCCCC/C=C\C/C=C\CCCCCCCC(=O)OC[C@H](COP(=O)([O-])OCC[N+](C)(C)C)OC(=O)CCCCCCCCCCCCCCCCCC [PC 18:2_19:0] (ion (formula + adduct): [C45H86NO8P+H] 1+) | 294.4 Å²
20 | CCCCC/C=C\C/C=C\C/C=C\C/C=C\CCCC(=O)O[C@H](COC(=O)CCCCCCC/C=C\C/C=C\CCCCC)COP(=O)([O-])OCC[N+](C)(C)C [PC 18:2_20:4] (ion (formula + adduct): [C46H80NO8P+H] 1+) | 290.1 Å²
21 | CC/C=C\C/C=C\C/C=C\C/C=C\C/C=C\C/C=C\CCC(=O)O[C@H](COC(=O)CCCCCCC/C=C\C/C=C\CCCCC)COP(=O)([O-])OCC[N+](C)(C)C [PC 18:2_22:6] (ion (formula + adduct): [C48H80NO8P+H] 1+) | 292.5 Å²
22 | CCCCC/C=C\C/C=C\C/C=C\CCCCCCC(=O)O[C@H](COC(=O)CCCC/C=C\C/C=C\C/C=C\CCCCC)COP(=O)([O-])OCC[N+](C)(C)C [PC 18:3_20:3@] (ion (formula + adduct): [C46H80NO8P+H] 1+) | 293.2 Å²
23 | CCCCC/C=C\C/C=C\C/C=C\C/C=C\CCCC(=O)O[C@H](COC(=O)CCCC/C=C\C/C=C\C/C=C\CCCCC)COP(=O)([O-])OCC[N+](C)(C)C [PC 18:3_20:4] (ion (formula + adduct): [C46H78NO8P+H] 1+) | 286.7 Å²
24 | CC/C=C\C/C=C\C/C=C\C/C=C\C/C=C\C/C=C\CCC(=O)O[C@H](COC(=O)CCCC/C=C\C/C=C\C/C=C\CCCCC)COP(=O)([O-])OCC[N+](C)(C)C [PC 18:3_22:6@] (ion (formula + adduct): [C48H78NO8P+H] 1+) | 289.6 Å²
25 | CCCCC/C=C\C/C=C\C/C=C\CCCCCCC(=O)O[C@H](COC(=O)CCCCCCCCCCCCCCCCCC)COP(=O)([O-])OCC[N+](C)(C)C [PC 19:0@_20:3] (ion (formula + adduct): [C47H88NO8P+H] 1+) | 299.8 Å²
26 | CCCCC/C=C\C/C=C\C/C=C\C/C=C\CCCC(=O)O[C@H](COC(=O)CCCCCCCCCCCCCCCCCC)COP(=O)([O-])OCC[N+](C)(C)C [PC 19:0@_20:4] (ion (formula + adduct): [C47H86NO8P+H] 1+) | 298 Å²
27 | CC/C=C\C/C=C\C/C=C\C/C=C\C/C=C\C/C=C\CCC(=O)O[C@H](COC(=O)CCCCCCCCCCCCCCCCCC)COP(=O)([O-])OCC[N+](C)(C)C [PC 19:0@_22:6] (ion (formula + adduct): [C49H86NO8P+H] 1+) | 300.5 Å²
28 | CCCCC/C=C\C/C=C\CCCCCCCC(=O)O[C@H](COC(=O)CCCCCCCCCCCCCCCCCCC)COP(=O)([O-])OCC[N+](C)(C)C [PC 20:0_18:2] (ion (formula + adduct): [C46H88NO8P+H] 1+) | 297.5 Å²

same assay, conditions: sample type: plasma; ionization mode: positive; one isomer drawn

Row | SMILES | TIMS collisional cross section
29 | CCCCCCCC/C=C\C/C=C\CCCCC(=O)O[C@H](COC(=O)CCCCCCC/C=C\CCCCCCCC)COP(=O)([O-])OCC[N+](C)(C)C [PC 18:1_18:2] (ion (formula + adduct): [C44H82NO8P+H] 1+) | 289.8 Å²
30 | CCCCC/C=C\C/C=C\C/C=C\C/C=C\CCCC(=O)O[C@H](COC(=O)CCCCCCC/C=C\CCCCCCCC)COP(=O)([O-])OCC[N+](C)(C)C [PC 18:1_20:4] (ion (formula + adduct): [C46H82NO8P+H] 1+) | 294.3 Å²
31 | CC/C=C\C/C=C\C/C=C\C/C=C\C/C=C\C/C=C\CCC(=O)O[C@H](COC(=O)CCCCCCCCC/C=C\CCCCCC)COP(=O)([O-])OCC[N+](C)(C)C [PC 18:1_22:6@] (ion (formula + adduct): [C48H82NO8P+H] 1+) | 296.5 Å²
32 | CC/C=C\C/C=C\C/C=C\C/C=C\C/C=C\CCCC(=O)O[C@H](COC(=O)CCCCCCC/C=C\C/C=C\CCCCC)COP(=O)([O-])OCC[N+](C)(C)C [PC 18:2@_20:5] (ion (formula + adduct): [C46H78NO8P+H] 1+) | 287 Å²
33 | CCCCC/C=C\C/C=C\CCCCCCCC(=O)OC[C@H](COP(=O)([O-])OCC[N+](C)(C)C)OC(=O)CCCCCCCCCCCCCCCCCCCCCCC [PC 18:2@_24:0] (ion (formula + adduct): [C50H96NO8P+H] 1+) | 310.1 Å²
34 | CCCCCCCCCCCCC/C=C/C=C/C(=O)OC[C@H](COP(=O)([O-])OCC[N+](C)(C)C)OC(=O)/C=C/C=C/CCCCCCCCCCCCC [PC 18:2_18:2] (ion (formula + adduct): [C44H80NO8P+H] 1+) | 286.9 Å²
35 | CCCCC/C=C\C/C=C\C/C=C\CCCCC(=O)O[C@H](COC(=O)CCCCCCC/C=C\C/C=C\CCCCC)COP(=O)([O-])OCC[N+](C)(C)C [PC 18:2_18:3@] (ion (formula + adduct): [C44H78NO8P+H] 1+) | 289.3 Å²
36 | CCCCC/C=C\C/C=C\C/C=C\CCCCC(=O)O[C@H](COC(=O)CCCCCCC/C=C\C/C=C\CCCCC)COP(=O)([O-])OCC[N+](C)(C)C [PC 18:2_18:3] (ion (formula + adduct): [C44H78NO8P+H] 1+) | 283.6 Å²
37 | CCCCC/C=C\C/C=C\C/C=C\CCCCC(=O)OC[C@H](COP(=O)([O-])OCC[N+](C)(C)C)OC(=O)CCCCCCC/C=C\CCCCCCCCC [PC 18:3@_19:1] (ion (formula + adduct): [C45H82NO8P+H] 1+) | 295 Å²
38 | CCCCC/C=C\C/C=C\C/C=C\C/C=C\CCCC(=O)O[C@H](COC(=O)CCCC/C=C\C/C=C\C/C=C\CCCCC)COP(=O)([O-])OCC[N+](C)(C)C [PC 18:3@_20:4] (ion (formula + adduct): [C46H78NO8P+H] 1+) | 292.8 Å²
39 | CC/C=C\C/C=C\C/C=C\C/C=C\C/C=C\CCCC(=O)O[C@H](COC(=O)CCCC/C=C\C/C=C\C/C=C\CCCCC)COP(=O)([O-])OCC[N+](C)(C)C [PC 18:3_20:5] (ion (formula + adduct): [C46H76NO8P+H] 1+) | 288.2 Å²
